This is an account of results in ChEMBL document CHEMBL1201862, “PubChem BioAssay data set” (2004).

Some test systems named below: BT-549; SW-620; SNB-75; HCT-15; SF-268; ACHN; OVCAR-8; NCI-H23; HOP-62; SF-539; HOP-92; SK-MEL-28; SN12C; NCI/ADR-RES; NCI-H522; SNB-19; EKVX; M14; HCT-116; DMS-114.
Common to all, as to experiment: NCI tumour cell line growth inhibition, 48 h

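Protocol summary: plate cells (96-well), add compound at 5 concentrations, incubate 48 h, interpolate endpoints linearly. Here, GI50 denotes the concentration required for 50% inhibition of growth.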 Calls of active or inactive are those of the source. Cut-off read from the data, not from the text of the source: active = GI50 up to about 1.1 µM and inactive = higher. A value given as a limit tells only on which side of the number the result lay.

With `CCOc1cc(NC(C)=O)ccc1C(=O)NN1C(=O)C(Cl)C1c1ccccc1` (centres undefined), the GI50 was 11.4 µM (inactive) with BT-549; 12.4 µM (inactive) with SW-620; 15.6 µM (inactive) with SNB-75; 16.1 µM in the assay on HCT-15; 16.7 µM (inactive) in the assay with SF-268; 16.2 µM (inactive) with ACHN. Besides, the GI50 in the assay on OVCAR-8 is 20.9 µM (inactive); with NCI-H23 it was 14.3 µM (inactive); with HOP-62, 20.5 µM (inactive); with SF-539 it was 10.9 µM (inactive); in the assay on HOP-92, 12.9 µM (inactive); in the assay on SK-MEL-28 it was 16.9 µM (inactive). The GI50 is 13.9 µM (inactive) in the assay on SN12C; 25.1 µM (inactive) in the assay with NCI/ADR-RES; 2.24 µM (inactive) in the assay with NCI-H522; 15.1 µM (inactive) in the assay on SNB-19; 14.9 µM (inactive) in the assay with EKVX; 12.4 µM (inactive) with M14. Also, the GI50 with HCT-116 is 17.5 µM (inactive).
For the molecule `COC(=O)C1(C)CCc2c(ccc3ccccc23)C1=O` (centres undefined), the GI50 in the assay with BT-549 is 27.1 µM (inactive); in the assay on SW-620, 39 µM (inactive); with SNB-75, 44.8 µM (inactive); with HCT-15, 34.5 µM; in the assay with SF-268 it was 32.1 µM (inactive); in the assay with ACHN it was 55.1 µM (inactive). Further, the GI50 was 40.1 µM (inactive) with OVCAR-8; 51.6 µM (inactive) in the assay on NCI-H23; 78.7 µM (inactive) with HOP-62; 86.7 µM (inactive) with SF-539; 45.4 µM (inactive) in the assay on HOP-92; 64.7 µM (inactive) with SK-MEL-28. The GI50 in the assay with SN12C is 44.7 µM (inactive); with NCI/ADR-RES it was 34.8 µM (inactive); in the assay with NCI-H522, 24.9 µM (inactive); with SNB-19 it was 45.2 µM (inactive); in the assay with EKVX it was 31.8 µM (inactive); with M14 it was 29.9 µM (inactive). Further, the GI50 with HCT-116 is 33.7 µM (inactive).
`O=C(Nc1ccc(Cl)cc1)c1cc(S(=O)(=O)NC2=Nc3ccc(Cl)cc3C(c3ccccc3)N2)c(SSc2cc(Cl)c(C(=O)Nc3ccc(Cl)cc3)cc2S(=O)(=O)NC2=Nc3ccc(Cl)cc3C(c3ccccc3)N2)cc1Cl` (centres undefined): the GI50 in the assay on BT-549 was > 100 µM (inactive); with SW-620, > 100 µM (inactive); in the assay on SNB-75 it was > 100 µM (inactive); with HCT-15, more than 100 µM; with SF-268 it was > 100 µM (inactive); in the assay with ACHN, > 100 µM (inactive). Further, the GI50 with OVCAR-8 is > 100 µM (inactive); with NCI-H23 it was > 100 µM (inactive); in the assay on HOP-62 it was > 100 µM (inactive); in the assay on SF-539, > 100 µM (inactive); with HOP-92 it was 83.4 µM (inactive); in the assay on SK-MEL-28 it was > 100 µM (inactive). In addition, the GI50 with SN12C is > 100 µM (inactive); in the assay on NCI/ADR-RES, > 100 µM (inactive); in the assay with NCI-H522 it was > 100 µM (inactive); with SNB-19, > 100 µM (inactive); in the assay on EKVX, > 100 µM (inactive); in the assay on M14 it was 46.1 µM (inactive). The GI50 in the assay with HCT-116 is > 100 µM (inactive).
For the molecule `Cc1ccc(C(=O)C(C)N)cc1C` (centres undefined), the GI50 in the assay on SW-620, in the assay on SNB-75, in the assay on SF-268, in the assay on ACHN, in the assay with OVCAR-8 and in the assay with NCI-H23 was > 100 µM (inactive) in each case. The GI50 in the assay with HOP-62, with SF-539, in the assay on DMS-114, in the assay on SK-MEL-28, in the assay with SN12C and in the assay with NCI-H522 was > 100 µM (inactive) each time. Also, the GI50 in the assay on SNB-19, in the assay with EKVX, with M14 and in the assay with HCT-116 was > 100 µM (inactive) each time.
`COc1cc(-c2cc(=O)c3cc4c(=O)cc(-c5cc(OC)c(OC)c(OC)c5)oc4cc3o2)cc(OC)c1OC`: the GI50 in the assay on BT-549 is 17.5 µM (inactive); in the assay on SW-620, > 100 µM (inactive); in the assay on SNB-75, 13.5 µM (inactive); in the assay on HCT-15 it was more than 100 µM; in the assay on SF-268, 23.5 µM (inactive); in the assay on ACHN, 25.1 µM (inactive). The GI50 with OVCAR-8 was 27 µM (inactive); in the assay with NCI-H23, 25.8 µM (inactive); in the assay on HOP-62 it was 12.6 µM (inactive); with SF-539 it was 58.3 µM (inactive); in the assay with HOP-92 it was 14.6 µM (inactive); in the assay on SK-MEL-28, > 100 µM (inactive). Further, the GI50 is 32.4 µM (inactive) in the assay with SN12C; 65.9 µM (inactive) with NCI/ADR-RES; 27.4 µM (inactive) with NCI-H522; 16.4 µM (inactive) with SNB-19; > 100 µM (inactive) with EKVX; 60.3 µM (inactive) in the assay on M14. Besides, the GI50 in the assay on HCT-116 was 30.9 µM (inactive).
As to `COc1ccc(/C=C/C(=O)Oc2ccc(/C=C3\CCCCC3=O)cc2)cc1`, the GI50 in the assay with BT-549 was 72.3 µM (inactive); in the assay with SW-620, > 93.1 µM (inactive); in the assay on SNB-75, > 88.3 µM (inactive); with HCT-15 it was 29.1 µM; in the assay with SF-268 it was 8 µM (inactive); in the assay with ACHN it was > 100 µM (inactive). For the same molecule, the GI50 was > 75.9 µM (inactive) in the assay with OVCAR-8; 97.1 µM (inactive) with NCI-H23; 23.1 µM (inactive) in the assay with HOP-62; > 100 µM (inactive) in the assay with SF-539; > 66.1 µM (inactive) in the assay on HOP-92; > 100 µM (inactive) in the assay on SK-MEL-28. Further, the GI50 with SN12C was 50.9 µM (inactive); in the assay on NCI/ADR-RES, > 57.4 µM (inactive); in the assay on NCI-H522, > 100 µM (inactive); in the assay on SNB-19, > 66.1 µM (inactive); in the assay with EKVX, > 100 µM (inactive); in the assay with M14 it was > 100 µM (inactive). Further, the GI50 in the assay on HCT-116 is 9.33 µM (inactive).
`O=C(CCSC1=NCCCN1)c1ccc(F)cc1`: the GI50 is 18.2 µM (inactive) in the assay with BT-549; 2.86 µM (inactive) in the assay on SW-620; 19 µM (inactive) in the assay with SNB-75; 13.1 µM with HCT-15; 22.9 µM (inactive) in the assay on SF-268; 15.5 µM (inactive) with ACHN. The GI50 with OVCAR-8 was 31.9 µM (inactive); in the assay with NCI-H23, 19.4 µM (inactive); in the assay with HOP-62 it was 27.8 µM (inactive); in the assay with SF-539, 15.7 µM (inactive); in the assay on HOP-92 it was 20.6 µM (inactive); with SK-MEL-28, 18.7 µM (inactive). Moreover, the GI50 was 22.2 µM (inactive) with SN12C; 28.1 µM (inactive) with NCI/ADR-RES; 2.08 µM (inactive) with NCI-H522; 22.1 µM (inactive) in the assay on SNB-19; 12.7 µM (inactive) with EKVX; 15.6 µM (inactive) with M14. The GI50 in the assay on HCT-116 was 20.1 µM (inactive).
Consider `NN/C(=N\S(=O)(=O)c1cc2ccccc2o1)Nc1ccc(Cl)cc1`, for which the GI50 in the assay on BT-549 was 57.7 µM (inactive); in the assay on SW-620, > 100 µM (inactive); with SNB-75 it was 13.1 µM (inactive); with HCT-15, more than 100 µM; in the assay on SF-268 it was 33.9 µM (inactive); in the assay on ACHN, > 100 µM (inactive). Further, the GI50 with OVCAR-8 is 51.1 µM (inactive); in the assay on NCI-H23 it was > 100 µM (inactive); in the assay with HOP-62, 48.8 µM (inactive); in the assay with SF-539 it was > 100 µM (inactive); with HOP-92 it was 20.4 µM (inactive); in the assay with SK-MEL-28, > 100 µM (inactive). The GI50 was > 100 µM (inactive) with SN12C; > 100 µM (inactive) with NCI/ADR-RES; 24.4 µM (inactive) with NCI-H522; 60.8 µM (inactive) in the assay on SNB-19; 91.2 µM (inactive) in the assay on EKVX; > 100 µM (inactive) in the assay on M14. Further, in the assay on HCT-116, the GI50 was > 100 µM (inactive).
`COC(=O)/C=C1\CCCN1CCc1cc2c(cc1CC#N)OCO2`: the GI50 in the assay on BT-549 is 52.6 µM (inactive); in the assay on SW-620 it was 49.7 µM (inactive); in the assay on SNB-75, 25.1 µM (inactive); in the assay with HCT-15, 43.2 µM; in the assay with SF-268, > 100 µM (inactive); in the assay with ACHN, > 100 µM (inactive). The GI50 was > 100 µM (inactive) in the assay on OVCAR-8; 47.2 µM (inactive) in the assay on NCI-H23; 52.4 µM (inactive) with HOP-62; 46.8 µM (inactive) in the assay on SF-539; > 100 µM (inactive) in the assay on HOP-92; 84.1 µM (inactive) in the assay with SK-MEL-28. In addition, the GI50 was 50 µM (inactive) with SN12C; 69.8 µM (inactive) with NCI/ADR-RES; > 100 µM (inactive) in the assay on NCI-H522; 60 µM (inactive) in the assay with SNB-19; 58.9 µM (inactive) with EKVX; 71.1 µM (inactive) with M14. In the assay with HCT-116, the GI50 was 41.2 µM (inactive).
On to `CC(=O)OC1CC2C(C)(C)C(=O)C=C[C@]2(C)C2CCC3(C)C(=CC(=O)C3c3ccoc3)[C@]12C` (some centres undefined), for which the GI50 is 10.5 µM (inactive) in the assay on SW-620; 12.5 µM (inactive) with SNB-75; 11.7 µM with HCT-15; 15.6 µM (inactive) with SF-268; 16.2 µM (inactive) in the assay with ACHN; 16.7 µM (inactive) in the assay with OVCAR-8. Also, the GI50 is 12.7 µM (inactive) in the assay with NCI-H23; 16.3 µM (inactive) in the assay on HOP-62; 16.9 µM (inactive) in the assay on SF-539; 10 µM (inactive) in the assay on DMS-114; 19.9 µM (inactive) in the assay on HOP-92; 15.9 µM (inactive) in the assay on SK-MEL-28. The GI50 with SN12C was 16.7 µM (inactive); in the assay on SNB-19, 15.6 µM (inactive); in the assay with EKVX, 15.7 µM (inactive); in the assay on M14 it was 21 µM (inactive); in the assay with HCT-116, 11.6 µM (inactive).
As to `O=C(O)CC(Nc1ccccc1)C(=O)O` (centres undefined), the GI50 in the assay on BT-549 is > 100 µM (inactive); in the assay with SW-620, > 100 µM (inactive); in the assay with SNB-75, > 100 µM (inactive); with HCT-15, more than 100 µM; in the assay with SF-268 it was > 100 µM (inactive); with ACHN it was > 100 µM (inactive). The GI50 with OVCAR-8, in the assay on NCI-H23, in the assay with HOP-62, with SF-539, in the assay on HOP-92 and in the assay on SK-MEL-28 was > 100 µM (inactive) each time. Also, the GI50 with SN12C, in the assay with NCI/ADR-RES, in the assay with NCI-H522, in the assay on SNB-19, with EKVX and with M14 was > 100 µM (inactive) in each case. For the same molecule, in the assay with HCT-116, the GI50 is > 100 µM (inactive).
